From the METLIN SMRT retention time set (Domingo-Almenara et al. 2019)

Assay: gradient 5% acetonitrile 3 min, to 50% in 2 min, to 85% in 15 min, held 3 min, 100 µL/min
Conditions: column: Zorbax Extend-C18 2.1 x 50 mm; eluents: water / acetonitrile, 0.1% formic acid
How it was run: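 A Zorbax Extend-C18 column (2.1 × 50 mm, 1.8 μm) run at 100 μL/min with water and acetonitrile, both containing 0.1% formic acid, separated mixtures of ~100 pure standards. The HPLC was coupled to a quadrupole time-of-flight mass spectrometer operated in positive and negative ionization mode, with dead and dwell volumes of 40 μL and 900 μL. Each retention time was taken from a computationally picked adduct peak that was then manually inspected.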

SMILES	RP-LC retention time
O=C(Cn1cnc2ccccc2c1=O)NCCn1nc(-c2cccs2)ccc1=O	622 s
Cc1nc2cc(N3CC(C(=O)Nc4ccc(Cl)cc4F)CC3=O)ccc2o1 (stereo not given)	787 s
Cc1ccccc1OCc1nc(-c2cccc(-c3ccn[nH]3)c2)no1	1020 s
Cc1c(CNCc2cccnc2)c(C(=O)O)c(C)n1Cc1cccc(F)c1	618 s
COc1ccc(NC(=O)C2CCCN(c3cc(=O)n(C)c(=O)n3C)C2)cc1OC (stereo not given)	637 s
COc1cccc2cc(C(=O)Nc3ccc(-c4ccc(N5CCCC5)nn4)cc3)oc12	607 s
O=C(CN1CCN(C(=O)Nc2ccc(F)cc2)CC1=O)N1CCCC1	615 s
COCCNC(=O)N1CCN(Cc2nc3cc(C(=O)N(C)C)ccc3o2)CC1	559 s
Cc1ccc(C(=O)N2CCc3cc(CNC(=O)c4ccnn4C)ccc32)cc1	821 s
Cc1ccc(C)c(CS(=O)(=O)N2CCC(CN3CCCC(C)C3)CC2)c1 (stereo not given)	723 s
O=C(CSc1nc(CC(=O)N2CCN(c3ccccn3)CC2)cs1)c1cccs1	567 s
O=C1c2cccc3cccc(c23)C(=O)N1CCCC(=O)N1CCc2ccccc21	908 s
COc1ccc(Cl)cc1S(=O)(=O)Nc1cccn2c(C3CCC3)nnc12	849 s
COc1ccc(NC(=O)Cn2c(=O)n(-c3ccc(C)cc3)c3ncccc32)c(C)c1	833 s
O=S(=O)(NCCc1c[nH]c2ncccc12)c1ccc(Br)s1	673 s
COCC1CN(S(=O)(=O)c2cccc(C#N)c2)CC12CCNCC2 (stereo not given)	609 s
COc1cccc(-c2noc(-c3nn(-c4cccc(F)c4)ccc3=O)n2)c1OC	807 s
COc1ccc2nc(N3CC(C(=O)N4CCc5cc(OC)c(OC)cc5C4)C3)sc2c1	661 s
CCc1nn2c(CNS(=O)(=O)c3ccc(C)cc3)c(-c3ccccc3)nc2s1	973 s
CCC[C@@H](NC(=O)N1C(=O)C(CC)(CC)[C@@H]1Oc1ccc(C(=O)N2CCN(C)CC2)cc1)c1ccc2c(c1)OCO2	919 s
CCOC(=O)Nc1c2ccccc2nc2ccccc12	660 s
C=CCNC(=O)c1nnn(Cc2ccc(C)cc2)c1-n1cccc1	966 s
CC(C)c1nnc(-c2ccc(=O)n(CC(=O)N3CCN(c4ccccn4)CC3)c2)o1	570 s

SMILES	RP-LC retention time
CNC(=O)c1cn(CC(C)C)c(=O)c2ccccc12	853 s
Cc1ccc(S(=O)(=O)N2C[C@@H](F)C[C@H]2C(=O)N2CCOCC2)c(C)c1	740 s
CCc1ccc(-c2cc3c(=O)n(Cc4noc(CN5CCC(C)CC5)n4)ccn3n2)cc1	757 s
COc1cc(-c2nc3ncccn3c2Nc2cc(C)ccc2C)ccc1O	672 s
Cc1ccc(NC(=O)c2cc(C(C)C)n3nccc3n2)cc1	1140 s
CC(=O)Nc1nsc(N2CCC(C(=O)NCc3ccc(F)cc3F)CC2)n1	798 s
CCC(=O)Nc1nc(-c2ccc3c(c2)N(CC)C(=O)CO3)c(C)s1	812 s
COC(=O)C1=CN(c2cccc(Cl)c2)c2ccccc2S1(=O)=O	879 s
O=C(Cc1nnc2cc(-c3nc(C4CC4)no3)ccn12)N1CCSCC1	698 s
Cc1cc2c(c(=O)n(-c3ccccc3)c(=O)n2CC(=O)Nc2ccccc2F)n1C	803 s
COc1nccnc1NC1CCN(C(=O)c2cccnc2)CC1	692 s
Cc1cc(C)cc(-n2ccc(=O)c(-c3nc(-c4ccc5c(c4)OCO5)no3)n2)c1	996 s
C/C=C(/C)C(=O)O[C@H]1CC(C)=CC(=O)[C@@]2(C)CC[C@@](O)(C(C)C)[C@H]12	725 s
O=c1n(CC2CC2)nc2n1CCC(NS(=O)(=O)c1cccc(F)c1)CC2 (stereo not given)	717 s
CCc1onc(C)c1C1CCCN1C(=O)c1ccc(OC)c(OC)c1 (stereo not given)	714 s
COc1cccc(-c2noc(C3CCCN3C(=O)NCc3ccco3)n2)c1 (stereo not given)	615 s
O=C(NCc1cccnc1)C1c2ccccc2C(=O)N1Cc1ccccc1 (stereo not given)	604 s
O=C(NCc1ccco1)C1CCN(c2ccc(=O)n(-c3cccc(Cl)c3)n2)CC1	785 s
COC(=O)c1cc(OC)c(OC)cc1NC(=O)c1c(C)coc1C	940 s
Cc1ccc(CNC(=O)Cc2csc3nc(-c4cccc(Br)c4)cn23)cc1	963 s
COC(=O)c1cc2c(=O)n(CCN3CCOCC3)ccc2nc1C	560 s
COc1ccc(N2CCN(C(=O)C3CCCN(c4nnc5cccc(C)n45)C3)CC2)cc1 (stereo not given)	661 s
